Test results taken from patent publication US10072006B2 (MUTABILIS, priority 2015, dated 2018).
Counter-ions that a name gives are not always drawn. Like-named read-outs stand apart in the source and are kept apart here.

Experiments:
[1] = test system: E. coli 190317 (TEM-1, SHV-12, CTX-M-15, OXA-1); experiment: microbe, parasite or virus in culture; assay type: cell-based
Experimental: (§1) Briefly, compounds alone according to the invention were prepared in DMSO and spotted (2 μL each) on sterile polystyrene plates (Corning, 3788). […] Microplates were incubated for 16-20 h at 35° C. in ambient air. The MIC of the compounds was defined as the lowest concentration of said compounds that prevented bacterial growth as read by visual inspection.

[2] = test system: E. cloacae P99 (Derepressed ampC); experiment: MIC of compounds and synergy with ceftazidime (broth microdilution); assay type: cell-based; conditions: strain P99 (E. cloacae); for MIC, combination of CAZ and compounds of the invention: MIC of ceftazidime with compound fixed at 4 μg/mL; for MIC: Enterobacter cloacae, 18 h, read-out: MIC compounds of the invention alone
Experimental: as §1

[3] = test system: K. pneumoniae BAA-1898 (TEM-1, SHV-11, SHV-12, KPC-2); experiment: as above; assay type: cell-based; conditions: for MIC, combination of CAZ and compounds of the invention: MIC of ceftazidime with compound fixed at 4 μg/mL; for MIC: Klebsiella pneumoniae
Experimental: as §1

[4] = test system: P. aeruginosa CIP107051 (TEM-24); experiment: as above; assay type: cell-based; conditions: for MIC, combination of CAZ and compounds of the invention: MIC of ceftazidime with compound fixed at 4 μg/mL; for MIC: Pseudomonas aeruginosa
Experimental: as §1

[5] = test system: P. aeruginosa CIP105250 (OXA-15); experiment: as above; assay type: cell-based; conditions: for MIC, combination of CAZ and compounds of the invention: MIC of ceftazidime with compound fixed at 4 μg/mL; for MIC: Pseudomonas aeruginosa
Experimental: as §1

E. coli RGN238 (OXA-1) = experiment: as above; assay type: cell-based; conditions: for MIC: Escherichia coli
Experimental: as §1

[6] = test system: E. coli 131119 (TEM-1, OXA-48); experiment: as above; assay type: cell-based; conditions: for MIC: Escherichia coli
Experimental: as §1

[7] = test system: K. pneumoniae 6299 (TEM-1, SHV-11, OXA-163); experiment: as above; assay type: cell-based; conditions: for MIC, combination of CAZ and compounds of the invention: MIC of ceftazidime with compound fixed at 4 μg/mL; for MIC: Klebsiella pneumoniae
Experimental: as §1

[8] = test system: P. aeruginosa UFR35 (OXA-23); experiment: as above; assay type: cell-based; conditions: for MIC: Pseudomonas aeruginosa
Experimental: as §1

[9] = test system: E. coli UFR74 (SHV-1, DHA-1); experiment: as above; assay type: cell-based; conditions: for MIC: Escherichia coli
Experimental: as §1

[10] = test system: P. aeruginosa UFR92 (Derepressed ampC, OprD-); experiment: as above; assay type: cell-based; conditions: Pseudomonas aeruginosa, read-out: MIC of CAZ
Experimental: as §1

[11] = test system: K. pneumoniae UFR77 (CMY-2); experiment: as above; assay type: cell-based; conditions: for MIC: Klebsiella pneumoniae
Experimental: as §1

[12] = test system: P. aeruginosa UFR48 (VIM-2); experiment: as above; assay type: cell-based; conditions: for MIC: Pseudomonas aeruginosa
Experimental: as §1

[13] = test system: P. aeruginosa UFR90 (Derepressed ampC, OprD-); experiment: as above; assay type: cell-based; conditions: Pseudomonas aeruginosa, read-out: MIC of CAZ
Experimental: as §1

[14] = test system: K. pneumoniae UFR24 (TEM-1, SHV-2, SHV-11, OXA-1, OXA-48, OXA-47); experiment: as above; assay type: cell-based; conditions: strain UFR24 (K. pneumoniae)
Experimental: as §1

[15] = test system: P. aeruginosa UFR47 (VIM-1); experiment: as above; assay type: cell-based; conditions: strain UFR47 (P. aeruginosa)
Experimental: as §1

[16] = test system: P. aeruginosa UFR59 (IMP-29); experiment: as above; assay type: cell-based; conditions: strain UFR59 (P. aeruginosa)
Experimental: as §1

[17] = test system: E. coli UFR18 (CTX-M-15, OXA-204); experiment: as above; assay type: cell-based; conditions: strain UFR18 (E. coli)
Experimental: as §1

[18] = test system: E. coli UFR52 (TEM-1, SHV-12, IMP-8); experiment: as above; assay type: cell-based; conditions: strain UFR52 (E. coli)
Experimental: as §1

[19] = test system: E. cloacae UFR38 (CTX-M-15, NDM-1); experiment: as above; assay type: cell-based; conditions: strain UFR38 (E. cloacae)
Experimental: as §1

[20] = test system: E. coli UFR61O (TEM-1, KPC-2); experiment: as above; assay type: cell-based
Experimental: as §1

[21] = test system: C. murliniae 210102 (VIM-4); experiment: as above; assay type: cell-based; conditions: strain 210102 (C. murliniae)
Experimental: as §1

[22] = test system: E. coli UFR32 (TEM-1, VEB-1, OXA-10); experiment: as above; assay type: cell-based; conditions: strain UFR32 (E. coli)
Experimental: as §1

TEM-1 = molecular target: T1, TEM-1 (Escherichia coli, UniProt P62593); experiment: β-lactamase inhibitory activity, determination of IC50 (nitrocefin hydrolysis); assay type: biochemical; conditions: class (A), 30 min pre-incubation
T1 construct: made in house; host or cells: E. coli

[23] = strain BAA-1898 (K. pneumoniae)
[24] = strain CIP107051 (P. aeruginosa)
[25] = strain CIP105250 (P. aeruginosa)
[26] = Escherichia coli, 18 h, read-out: MIC compounds of the invention alone
[27] = BAA1898, strain BAA-1898 (K. pneumoniae), read-out: MIC compounds of the invention alone
[28] = 18 h, strain CIP107051 (P. aeruginosa), read-out: MIC compounds of the invention alone
[29] = 18 h, strain CIP105250 (P. aeruginosa), read-out: MIC compounds of the invention alone
[30] = 18 h, strain RGN238 (E. coli), read-out: MIC compounds of the invention alone
[31] = 18 h, strain 131119 (E. coli), read-out: MIC compounds of the invention alone
[32] = 18 h, strain 6299 (K. pneumoniae), read-out: MIC compounds of the invention alone
[33] = MIC of ceftazidime with compound fixed at 4 μg/mL
[34] = Pseudomonas aeruginosa, 18 h, read-out: MIC compounds of the invention alone

T1 sequence (P62593 24-286 limits assumed): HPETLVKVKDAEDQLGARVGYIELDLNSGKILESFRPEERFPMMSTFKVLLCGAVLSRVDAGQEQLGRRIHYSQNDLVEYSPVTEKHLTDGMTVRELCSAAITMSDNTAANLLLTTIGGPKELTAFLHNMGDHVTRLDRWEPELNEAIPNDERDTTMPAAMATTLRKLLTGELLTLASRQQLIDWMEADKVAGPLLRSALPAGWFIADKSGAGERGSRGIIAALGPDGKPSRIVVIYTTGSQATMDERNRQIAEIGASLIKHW

For `COC[C@H]1C=C(c2cnco2)[C@@H]2CN1C(=O)N2OS(=O)(=O)[O-].[Na+]` (relative stereo) [Example 4], the “MIC, combination of CAZ and compounds of the invention” value (“MIC, combination” below) ([1]; MIC of ceftazidime with compound fixed at 4 μg/mL, strain 190317 (E. coli)) was 4 µg/mL, the “MIC compounds of the invention alone” value ([1]; strain 190317 (E. coli)) was greater than 32 µg/mL and the “MIC, combination” value [2] was 64 µg/mL. The “MIC compounds of the invention alone” value [2] was greater than 32 µg/mL, the “MIC, combination” value [3, 23] was 64 µg/mL and the “MIC compounds of the invention alone” value [3, 23] was greater than 32 µg/mL. The “MIC, combination” value [4, 24] was 64 µg/mL, the “MIC compounds of the invention alone” value [4, 24] was greater than 32 µg/mL and the “MIC, combination” value [5, 25] was 128 µg/mL. For the same compound, the “MIC compounds of the invention alone” value [5, 25] was greater than 32 µg/mL, the “MIC compounds of the invention alone” value (E. coli RGN238 (OXA-1); strain RGN238 (E. coli)) was greater than 32 µg/mL and the “MIC compounds of the invention alone” value ([6]; strain 131119 (E. coli)) was greater than 32 µg/mL. The “MIC, combination” value ([7]; strain 6299 (K. pneumoniae)) was 128 µg/mL and the “MIC compounds of the invention alone” value ([7]; strain 6299 (K. pneumoniae)) was greater than 32 µg/mL.
`N=C(N)NC[C@@H]1C(c2nccs2)=C[C@@H]2CN1C(=O)N2OS(=O)(=O)O` [Example 7, [(2S,5R)-2-(guanidinomethyl)-7-oxo-3-thiazol-2-yl-1,6-diazabicyclo[3.2.1]oct-3-en-6-yl] hydrogen sulfate] was tested, and the MIC [1, 26] was 0.063 µg/mL, the MIC [2] was 0.031 µg/mL and the “MIC, combination” value [2] was less than 0.125 µg/mL. For the same compound, the MIC [3, 27] was greater than 32 µg/mL, the “MIC, combination” value [3, 23] was no more than 0.125 µg/mL and the “MIC, combination” value [4, 24] was 1 µg/mL. The MIC [4, 28] was 8 µg/mL, the “MIC, combination” value [5, 25] was 32 µg/mL and the MIC [5, 29] was 32 µg/mL. It also gave an MIC (E. coli RGN238 (OXA-1); [30]) of 16 µg/mL, an MIC [6, 31] of 0.031 µg/mL and an MIC [7, 32] greater than 32 µg/mL. For the same compound, the “MIC, combination” value ([7]; strain 6299 (K. pneumoniae)) was 2 µg/mL.
`CC(C)(O/N=C(\C(=O)N[C@@H]1C(=O)N2C(C(=O)[O-])=C(C[n+]3ccccc3)CS[C@H]12)c1csc(N)n1)C(=O)O` [CAZ, ceftazidime, reference compound] was tested, and the MIC ([8]; read-out: MIC of CAZ) was 2 µg/mL, the MIC ([3]; BAA1898, read-out: MIC of CAZ) was 256 µg/mL and the MIC ([9]; read-out: MIC of CAZ) was 64 µg/mL. For the same compound, the MIC [10] was 32 µg/mL, the MIC ([4]; CIP107051, read-out: MIC of CAZ) was 256 µg/mL and the MIC ([11]; read-out: MIC of CAZ) was 64 µg/mL. For the same compound, the MIC ([5]; CIP105250, read-out: MIC of CAZ) was 256 µg/mL, the MIC ([12]; read-out: MIC of CAZ) was 256 µg/mL and the MIC (E. coli RGN238 (OXA-1); read-out: MIC of CAZ) was 0.5 µg/mL. For the same compound, the MIC ([6]; read-out: MIC of CAZ) was 0.5 µg/mL, the MIC ([7]; read-out: MIC of CAZ) was 256 µg/mL and the MIC [13] was 64 µg/mL.
For `NC[C@@H]1C=C(c2cnco2)[C@@H]2CN1C(=O)N2OS(=O)(=O)O` (relative stereo) [Example 1, Sodium and 2,2,2-trifluoroacetate [trans-2-(azaniumylmethyl)-4-oxazol-5-yl-7-oxo-1,6-diazabicyclo[3.2.1]oct-3-en-6-yl] sulfate], the “MIC, combination” value ([8]; MIC of ceftazidime with compound fixed at 4 μg/mL, strain UFR35 (P. aeruginosa)) was less than 0.25 µg/mL, the MIC ([8]; 18 h, strain UFR35 (P. aeruginosa), read-out: MIC compounds of the invention alone) was 1 µg/mL and the MIC [2] was 0.031 µg/mL. The “MIC, combination” value [2] was less than 0.25 µg/mL, the MIC ([14]; Klebsiella pneumoniae, 18 h, read-out: MIC compounds of the invention alone) was greater than 32 µg/mL and the “MIC, combination” value [14, 33] was 4 µg/mL. The MIC [3, 27] was greater than 32 µg/mL, the “MIC, combination” value [3, 23] was 0.5 µg/mL and the MIC ([9]; 18 h, strain UFR74 (E. coli), read-out: MIC compounds of the invention alone) was greater than 32 µg/mL. For the same compound, the “MIC, combination” value ([9]; MIC of ceftazidime with compound fixed at 4 μg/mL, strain UFR74 (E. coli)) was 4 µg/mL, the “MIC, combination” value [15, 33] was less than 0.25 µg/mL and the MIC [15, 34] was 2 µg/mL. For the same compound, the “MIC, combination” value [4, 24] was less than 0.25 µg/mL, the MIC [4, 28] was 2 µg/mL and the MIC ([11]; 18 h, strain UFR77 (K. pneumoniae), read-out: MIC compounds of the invention alone) was greater than 32 µg/mL. The “MIC, combination” value ([11]; MIC of ceftazidime with compound fixed at 4 μg/mL, strain UFR77 (K. pneumoniae)) was 2 µg/mL, the “MIC, combination” value [16, 33] was less than 0.25 µg/mL and the MIC [16, 34] was 8 µg/mL. The MIC [17, 26] was 0.031 µg/mL, the “MIC, combination” value [17, 33] was less than 0.25 µg/mL and the MIC [18, 26] was 2 µg/mL. For the same compound, the “MIC, combination” value [18, 33] was less than 0.25 µg/mL, the “MIC, combination” value [5, 25] was no more than 0.125 µg/mL and the MIC [5, 29] was greater than 32 µg/mL. The MIC ([19]; Enterobacter cloacae, 18 h, read-out: MIC compounds of the invention alone) was no more than 0.016 µg/mL, the “MIC, combination” value [19, 33] was less than 0.25 µg/mL and the “MIC, combination” value ([12]; MIC of ceftazidime with compound fixed at 4 μg/mL, strain UFR48 (P. aeruginosa)) was less than 0.25 µg/mL. The MIC ([12]; 18 h, strain UFR48 (P. aeruginosa), read-out: MIC compounds of the invention alone) was 4 µg/mL, the MIC (E. coli RGN238 (OXA-1); [30]) was greater than 32 µg/mL and the “MIC, combination” value (E. coli RGN238 (OXA-1); MIC of ceftazidime with compound fixed at 4 μg/mL, strain RGN238 (E. coli)) was no more than 0.125 µg/mL. The MIC [6, 31] was 32 µg/mL, the “MIC, combination” value ([6]; MIC of ceftazidime with compound fixed at 4 μg/mL, strain 131119 (E. coli)) was less than 0.25 µg/mL and the MIC ([20]; Escherichia coli, strain UFR61O (E. coli), read-out: MIC compounds of the invention alone) was 0.031 µg/mL. The “MIC, combination” value ([20]; MIC of ceftazidime with compound fixed at 4 μg/mL, strain UFR610 (E. coli)) was less than 0.25 µg/mL, the MIC [7, 32] was greater than 32 µg/mL and the “MIC, combination” value ([7]; strain 6299 (K. pneumoniae)) was 0.5 µg/mL. For the same compound, the MIC ([21]; 18 h, read-out: MIC compounds of the invention alone) was greater than 32 µg/mL, the “MIC, combination” value [21, 33] was 0.5 µg/mL and the MIC [22, 26] was 0.031 µg/mL. The “MIC, combination” value [22, 33] was less than 0.25 µg/mL and the IC50 (TEM-1) was 3.2 nM.
